The source made the active and inactive calls. The rule behind the calls is not given here.
Key:
Cholinesterase [1] = target: T1, Cholinesterase (Homo sapiens, UniProt P06276); assay: Pseudo-irreversible inhibition of human serum BChE assessed as enzyme recovery activity at 0.1 times IC50 using diluted compound relative to control; assay type: cell-free; design: scale not given: the % may be the effect or the level left
Danio rerio [2] = organism: Danio rerio; assay: Antialzheimer activity against 3 dpf zebrafish model of AlCl3-induced AD assessed as motility by measuring change in speed at 8 uM (reference value: 1.05 mm/s); assay type: functional
Danio rerio [3] = organism: Danio rerio; assay: Antialzheimer activity against 3 dpf zebrafish model of AlCl3-induced AD assessed as change in motility distance at 8 uM (reference value: 5204 mm); assay type: functional
Danio rerio [4] = organism: Danio rerio; assay: Antialzheimer activity against 3 dpf zebrafish model of AlCl3-induced AD assessed as efficacy on motility distance at 8 uM relative to control; assay type: functional
Danio rerio [5] = organism: Danio rerio; assay: Antialzheimer activity against 3 dpf zebrafish model of AlCl3-induced AD assessed as efficacy on speed change at 8 uM relative to control; assay type: functional
Cholinesterase [6] = target: T1, Cholinesterase; assay: Pseudo-irreversible inhibition of human serum BChE assessed as enzyme recovery activity at IC50 using undiluted compound relative to control; assay type: cell-free; design: scale not given: the % may be the effect or the level left
Butyrylcholinesterase = Butyrylcholinesterase (Rattus norvegicus, UniProt Q9JKC1); assay: Inhibition of rat serum BChE using acetylthiocholine iodide as substrate measured after 15 mins by Ellman's method; assay type: cell-free
Sequence of Butyrylcholinesterase (Q9JKC1 whole entry): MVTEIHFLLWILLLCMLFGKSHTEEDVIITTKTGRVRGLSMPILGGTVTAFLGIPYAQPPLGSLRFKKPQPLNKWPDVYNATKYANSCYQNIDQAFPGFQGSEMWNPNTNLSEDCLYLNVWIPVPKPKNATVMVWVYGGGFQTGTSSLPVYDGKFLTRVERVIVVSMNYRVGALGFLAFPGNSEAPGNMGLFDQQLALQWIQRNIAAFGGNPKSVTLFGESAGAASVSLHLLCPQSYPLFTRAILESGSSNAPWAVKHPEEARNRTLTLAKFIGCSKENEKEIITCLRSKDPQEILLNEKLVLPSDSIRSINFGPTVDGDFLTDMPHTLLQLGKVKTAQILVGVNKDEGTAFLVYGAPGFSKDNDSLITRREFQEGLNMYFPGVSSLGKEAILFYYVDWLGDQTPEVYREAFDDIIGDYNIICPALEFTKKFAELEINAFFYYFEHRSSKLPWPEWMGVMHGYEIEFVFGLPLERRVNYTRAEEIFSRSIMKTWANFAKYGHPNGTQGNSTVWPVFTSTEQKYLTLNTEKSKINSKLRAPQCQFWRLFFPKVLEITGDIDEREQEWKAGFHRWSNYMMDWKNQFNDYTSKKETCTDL

[7] = Permeability of the compound in PBS/EtOH (70:30) at 100 ug/ml by PAMPA-BBB assay; assay type: ADME; details: dose 100 µg/ml, read-out: permeability
[8] = Antioxidant activity of compound assessed as trolox equivalent antioxidant capacity by ORAC-FL assay; assay type: functional
Acetylcholinesterase [9] = target: T2, Acetylcholinesterase (Rattus norvegicus, UniProt P37136); assay: Inhibition of rat cortex AChE using acetylthiocholine iodide as substrate measured after 15 mins by Ellman's method; assay type: tissue-based
T2 sequence (P37136 whole entry): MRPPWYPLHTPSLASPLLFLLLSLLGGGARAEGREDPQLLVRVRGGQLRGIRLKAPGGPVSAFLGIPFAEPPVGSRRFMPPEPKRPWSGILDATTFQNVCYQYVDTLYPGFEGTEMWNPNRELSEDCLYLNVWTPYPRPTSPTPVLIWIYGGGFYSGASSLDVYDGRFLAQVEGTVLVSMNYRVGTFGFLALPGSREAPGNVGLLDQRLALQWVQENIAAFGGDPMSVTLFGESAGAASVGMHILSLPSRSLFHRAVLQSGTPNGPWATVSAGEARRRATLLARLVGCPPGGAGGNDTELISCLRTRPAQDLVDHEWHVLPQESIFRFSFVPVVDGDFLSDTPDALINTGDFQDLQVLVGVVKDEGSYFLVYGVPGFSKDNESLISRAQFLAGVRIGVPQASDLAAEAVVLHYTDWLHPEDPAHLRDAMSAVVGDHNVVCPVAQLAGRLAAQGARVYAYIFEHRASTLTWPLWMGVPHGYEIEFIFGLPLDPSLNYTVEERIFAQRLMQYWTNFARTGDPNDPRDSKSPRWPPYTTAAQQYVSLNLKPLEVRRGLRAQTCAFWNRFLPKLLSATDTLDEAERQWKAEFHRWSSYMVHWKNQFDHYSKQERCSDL

[10] = target: Amyloid-beta precursor protein (Homo sapiens) (UniProt P05067); assay: Inhibition of self-induced amyloid beta (1 to 42) (unknown origin) aggregation at 25 uM by ThT fluorescence assay relative to control
Sequence of Amyloid-beta precursor protein (Homo sapiens) (P05067 whole entry): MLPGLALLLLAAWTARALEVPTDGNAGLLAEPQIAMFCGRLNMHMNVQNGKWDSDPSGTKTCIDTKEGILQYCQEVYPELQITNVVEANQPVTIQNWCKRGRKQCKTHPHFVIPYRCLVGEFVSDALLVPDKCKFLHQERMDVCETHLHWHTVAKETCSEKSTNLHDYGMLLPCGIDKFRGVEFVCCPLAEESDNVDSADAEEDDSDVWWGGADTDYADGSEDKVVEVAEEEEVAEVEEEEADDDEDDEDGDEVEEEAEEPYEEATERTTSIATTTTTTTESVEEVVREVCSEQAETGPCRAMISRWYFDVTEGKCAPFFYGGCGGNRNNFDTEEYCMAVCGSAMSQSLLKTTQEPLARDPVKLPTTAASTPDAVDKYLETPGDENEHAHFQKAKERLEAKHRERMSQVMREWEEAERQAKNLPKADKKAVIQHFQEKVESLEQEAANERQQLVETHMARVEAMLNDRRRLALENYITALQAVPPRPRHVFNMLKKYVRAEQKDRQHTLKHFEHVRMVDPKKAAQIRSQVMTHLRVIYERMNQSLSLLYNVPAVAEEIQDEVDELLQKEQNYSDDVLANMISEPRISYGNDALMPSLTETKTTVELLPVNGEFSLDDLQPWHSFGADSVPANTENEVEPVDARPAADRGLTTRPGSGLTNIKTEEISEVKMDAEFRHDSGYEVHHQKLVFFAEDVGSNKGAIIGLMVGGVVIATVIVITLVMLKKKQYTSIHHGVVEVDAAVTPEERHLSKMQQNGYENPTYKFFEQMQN

PC-12 [11] = assay: Neuroprotective activity against H2O2-induced cell injury in rat PC12 cells assessed as cell viability preincubated for 2 hrs followed by H2O2 addition and measured after 24 hrs by MTT assay (reference value: 53.8 %); assay type: functional; details: time 26 hrs
PC-12 [12] = assay: Neuroprotective activity against H2O2-induced cell injury in rat PC-12 cells assessed as increase in cell viability causing decrease in LDH content preincubated for 2 hrs followed by H2O2 addition and measured after 24 hrs by LDH assay; assay type: functional, cell-based; details: dose 5-10 µM, time 26.0 hrs
Cholinesterase [13] = target: T1, Cholinesterase; assay: Pseudo-irreversible inhibition of human serum BChE assessed as enzyme recovery activity at 0.1 times IC50 measured immediately using diluted compound; assay type: cell-free; design: scale not given: the % may be the effect or the level left
Cholinesterase [14] = target: T1, Cholinesterase; assay: Pseudo-irreversible inhibition of human serum BChE assessed as enzyme recovery activity at IC50 using diluted compound relative to control; assay type: cell-free; design: scale not given: the % may be the effect or the level left
Mus musculus [15] = assay: Cognitive enhancing effect in scopolamine-induced Kunming mouse model of memory impairment assessed as effect on total arm entries at 6 mg/kg by Y-maze test; assay type: functional, organism-based
Mus musculus [16] = assay: Reversal of scopolamine-induced Kunming mouse model of memory impairment assessed as spontaneous alteration at 6 mg/kg by Y-maze test (reference value: 41.6 %); assay type: functional
Acetylcholinesterase [17] = target: T3, Acetylcholinesterase (Homo sapiens, UniProt P22303); assay: Pseudo-irreversible inhibition of human erythrocytes AChE assessed as enzyme recovery activity at 0.1 times IC50 measured at 120 mins using diluted compound relative to control; assay type: tissue-based; design: scale not given: the % may be the effect or the level left; details: Erythrocyte
T3 sequence (P22303 whole entry): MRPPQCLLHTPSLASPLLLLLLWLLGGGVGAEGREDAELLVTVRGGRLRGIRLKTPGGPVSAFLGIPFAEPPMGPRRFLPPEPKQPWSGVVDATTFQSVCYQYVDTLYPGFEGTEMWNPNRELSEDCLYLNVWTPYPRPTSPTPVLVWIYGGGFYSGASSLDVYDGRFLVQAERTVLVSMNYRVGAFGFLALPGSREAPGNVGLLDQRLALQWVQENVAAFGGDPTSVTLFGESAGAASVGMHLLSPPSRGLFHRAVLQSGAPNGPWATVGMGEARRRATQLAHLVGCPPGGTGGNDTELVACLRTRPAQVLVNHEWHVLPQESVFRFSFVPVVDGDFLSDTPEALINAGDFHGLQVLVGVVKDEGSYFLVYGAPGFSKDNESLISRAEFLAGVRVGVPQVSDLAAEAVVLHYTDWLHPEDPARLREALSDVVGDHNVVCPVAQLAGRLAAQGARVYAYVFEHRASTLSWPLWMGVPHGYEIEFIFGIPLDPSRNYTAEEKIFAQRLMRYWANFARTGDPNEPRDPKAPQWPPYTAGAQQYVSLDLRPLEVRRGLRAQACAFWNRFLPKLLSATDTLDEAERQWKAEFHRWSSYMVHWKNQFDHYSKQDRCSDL

Cholinesterase [18] = target: T1, Cholinesterase; assay: Inhibition of human serum BChE using acetylthiocholine iodide as substrate measured after 15 mins by Ellman's method; assay type: cell-free
Acetylcholinesterase [19] = target: T3, Acetylcholinesterase; assay: Inhibition of human erythrocytes AChE using acetylthiocholine iodide as substrate measured after 15 mins by Ellman's method; assay type: tissue-based, Erythrocyte
[20] = target: Amyloid-beta precursor protein (Homo sapiens) (UniProt P05067); assay: Disaggregation of self-induced amyloid beta (1 to 42) (unknown origin) preformed fibrils at 25 uM by ThT fluorescence assay relative to control
[21] = Cytotoxicity against human L02 cells assessed as cell viability at 25 uM measured after 72 hrs by MTT assay relative to control; assay type: cell-based; details: read-out: Activity
[22] = Cytotoxicity against human L02 cells assessed as cell viability at 6.25 uM measured after 72 hrs by MTT assay relative to control; assay type: cell-based; details: read-out: Activity
L02 = assay: Hepatoprotective activity H2O2-induced cell injury in human L02 cells assessed as cell viability at 10 uM measured after 48 hrs by MTT assay (reference value: 56.89 %); assay type: functional; details: read-out: Activity
[23] = Drug metabolism in rat intestine assessed as metabolite formation by UPLC-MS/MS analysis; assay type: ADME, tissue-based
[24] = Cytotoxicity against human L02 cells assessed as cell viability at 50 uM measured after 72 hrs by MTT assay relative to control; assay type: cell-based; details: read-out: Activity
[25] = Metal chelating activity assessed as Fe2+-compound complex formation at 37.5 uM in presence of 37.5 uM FeSO4 by UV-Vis spectrophotometric analysis
[26] = Cytotoxicity against human L02 cells assessed as cell viability at 12.5 uM measured after 72 hrs by MTT assay relative to control; assay type: cell-based; details: read-out: Activity
PC-12 [27] = assay: Cytotoxicity against rat PC-12 cells assessed as reduction in cell viability <= 100 uM measured after 48 hrs by MTT assay; assay type: cell-based; details: pc-12, 48 h
[28] = Metal chelating activity assessed as Cu2+-compound complex formation at 37.5 uM in presence of 37.5 uM CuCl2 by UV-Vis spectroscopic analysis
[29] = Drug metabolism in rat liver microsomes assessed as metabolite formation by UPLC-MS/MS analysis; assay type: ADME, Microsome
[30] = target: Amyloid-beta precursor protein (Homo sapiens) (UniProt P05067); assay: Disaggregation of self-induced amyloid beta (1 to 42) (unknown origin) preformed fibrils at 25 uM measured after 48 hrs by TEM analysis
[31] = Drug metabolism in human liver microsomes assessed as metabolite formation by UPLC-MS/MS analysis; assay type: ADME, Microsome
[32] = Metal chelating activity assessed as Al3+-compound complex formation at 37.5 uM in presence of 37.5 uM AlCl3 by UV-Vis spectrophotometric analysis
[33] = Metal chelating activity assessed as Zn2+-compound complex formation at 37.5 uM in presence of 37.5 uM ZnCl2 by UV-Vis spectrophotometric analysis
[34] = target: Amyloid-beta precursor protein (Homo sapiens) (UniProt P05067); assay: Inhibition of self-induced amyloid beta (1 to 42) (unknown origin) aggregation at 25 uM measured after 24 hrs by TEM analysis
[35] = Disaggregation of Copper-induced amyloid beta (1 to 42) (unknown origin) preformed fibrils measured after 48 hrs by TEM analysis
[36] = Inhibition of copper-induced amyloid beta (1 to 42) (unknown origin) aggregation at 25 uM by ThT fluorescence assay relative to control
[37] = Disaggregation of Copper-induced amyloid beta (1 to 42) (unknown origin) preformed fibrils at 25 uM by ThT fluorescence assay relative to control
[38] = Inhibition of copper-induced amyloid beta (1 to 42) (unknown origin) aggregation measured after 24 hrs by TEM analysis

T1 sequence (P06276 whole entry): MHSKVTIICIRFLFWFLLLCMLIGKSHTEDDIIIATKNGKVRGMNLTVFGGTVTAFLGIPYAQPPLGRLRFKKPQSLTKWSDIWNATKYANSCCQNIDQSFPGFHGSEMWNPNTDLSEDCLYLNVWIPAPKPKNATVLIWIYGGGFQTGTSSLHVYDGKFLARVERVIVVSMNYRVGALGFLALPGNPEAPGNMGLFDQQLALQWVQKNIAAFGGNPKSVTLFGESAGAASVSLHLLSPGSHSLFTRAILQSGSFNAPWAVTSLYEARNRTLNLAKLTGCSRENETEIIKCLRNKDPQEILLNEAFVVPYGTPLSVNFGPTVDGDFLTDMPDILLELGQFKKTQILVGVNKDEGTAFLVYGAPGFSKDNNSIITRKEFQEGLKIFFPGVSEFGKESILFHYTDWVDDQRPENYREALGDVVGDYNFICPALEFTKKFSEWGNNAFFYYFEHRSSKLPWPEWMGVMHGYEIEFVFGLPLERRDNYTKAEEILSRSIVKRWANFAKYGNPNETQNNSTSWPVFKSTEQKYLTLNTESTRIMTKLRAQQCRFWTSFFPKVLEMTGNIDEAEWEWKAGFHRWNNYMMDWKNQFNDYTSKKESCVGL

COc1cc2c(cc1OC)C(=O)C(CC1CCN(Cc3ccccc3)CC1)C2 (stereo not given) [DONEPEZIL]
Activity (Cholinesterase [1]): 60.3% | Activity (Danio rerio [2]): 1.91 millimeter/sec | Activity (Danio rerio [3]): 6361 mm | Efficacy (Danio rerio [4]): 55% | Efficacy (Danio rerio [5]): 66% | Activity (Cholinesterase [6]): 49.6%

O=c1cc(-c2ccc(O)cc2)oc2cc(O)cc(O)c12 [APIGENIN]
IC50 (Butyrylcholinesterase): > 500 µM | Papp at 100 ug/ml [7]: 1.68 ×10⁻⁶ cm/s | Activity [8]: 5.2 equiv | IC50 (Acetylcholinesterase [9]): > 500 µM

CN(C)C(=O)Oc1ccc(-c2cc(=O)c3c(O)cc(OC(=O)N(C)C)cc3o2)cc1
inhibition [10]: 79.2% | IC50 (Butyrylcholinesterase): 23.7 µM | Activity [8]: 1.1 equiv | IC50 (Acetylcholinesterase [9]): 9.2 µM

CCN(CC)C(=O)Oc1ccc(-c2cc(=O)c3c(O)cc(OC(=O)N(CC)CC)cc3o2)cc1
inhibition [10]: 77.8% | IC50 (Butyrylcholinesterase): 16.4 µM | Activity [8]: 1.2 equiv | IC50 (Acetylcholinesterase [9]): 7.8 µM

Cc1c(C)c2c(c(C)c1O)CCC(C)(C(=O)O)O2 (stereo not given) [TROLOX]
Activity (PC-12 [11]): 68.8% | Activity (PC-12 [12]): Active

CCN(C)C(=O)Oc1cccc([C@H](C)N(C)C)c1 [RIVASTIGMINE]
Activity (Cholinesterase [1]): 43.2% | Activity (Cholinesterase [13]): 43.2% | Activity (Cholinesterase [14]): 58.3% | Activity (Mus musculus [15]): inactive | Activity (Mus musculus [16]): 64.6% | Activity (Acetylcholinesterase [17]): 81.4%

CON(C)C(=O)Oc1ccc(-c2cc(=O)c3c(O)cc(OC(=O)N(C)OC)cc3o2)cc1
IC50 (Cholinesterase [18]): 22.6 µM | IC50 (Acetylcholinesterase [19]): 10.2 µM | inhibition [10]: 76.8% | IC50 (Butyrylcholinesterase): 17.2 µM | Activity [8]: 1.1 equiv | IC50 (Acetylcholinesterase [9]): 6.8 µM

O=C(Oc1ccc(-c2cc(=O)c3c(O)cc(OC(=O)N4CCCC4)cc3o2)cc1)N1CCCC1
inhibition [10]: 73.7% | IC50 (Butyrylcholinesterase): 26.9 µM | Activity [8]: 1.2 equiv | IC50 (Acetylcholinesterase [9]): 13.7 µM

CN(C)C(=O)Oc1ccc(-c2cc(=O)c3c(OC(=O)N(C)C)cc(OC(=O)N(C)C)cc3o2)cc1
inhibition [10]: 38.3% | IC50 (Butyrylcholinesterase): 23.1 µM | Activity [8]: 0.2 equiv | IC50 (Acetylcholinesterase [9]): 8.3 µM

O=C(Oc1ccc(-c2cc(=O)c3c(O)cc(OC(=O)N(c4ccccc4)c4ccccc4)cc3o2)cc1)N(c1ccccc1)c1ccccc1
inhibition [10]: 70.9% | IC50 (Butyrylcholinesterase): 37.6 µM | Activity [8]: 1 equiv | IC50 (Acetylcholinesterase [9]): 31.9 µM

CCN(C)C(=O)Oc1ccc(-c2cc(=O)c3c(OC(=O)N(C)CC)cc(OC(=O)N(C)CC)cc3o2)cc1
Activity [20]: 40.6% | viability at 72 h, 25 µM [21]: 89.8% | viability at 72 h, 6.25 µM [22]: 98% | IC50 (Cholinesterase [18]): 19.5 µM | viability at 10 µM (L02): 62.7% | Drug metabolism [23]: Metabolite_Detected | viability at 72 h, 50 µM [24]: 69.2% | IC50 (Acetylcholinesterase [19]): 9.2 µM | inhibition [10]: 35.1% | Activity [25]: inactive | viability at 72 h, 12.5 µM [26]: 98.5% | Activity (PC-12 [27]): Non-Toxic | Activity [28]: inactive | Drug metabolism [29]: Metabolite_Detected | Activity [30]: Active | Drug metabolism [31]: Metabolite_Detected | IC50 (Butyrylcholinesterase): 16.2 µM | Activity [32]: inactive | Papp at 100 ug/ml [7]: 19.2 ×10⁻⁶ cm/s | Activity [8]: 0.1 equiv | Activity [33]: inactive | IC50 (Acetylcholinesterase [9]): 5.1 µM | inhibition [34]: Active

COc1cc(/C=C/C(=O)CC(=O)/C=C/c2ccc(O)c(OC)c2)ccc1O
Activity [35]: Active | inhibition [36]: 53.6% | Activity [37]: 56.1% | inhibition [38]: Active

O=C(Oc1ccc(-c2cc(=O)c3c(OC(=O)N4CCOCC4)cc(OC(=O)N4CCOCC4)cc3o2)cc1)N1CCOCC1
inhibition [10]: 31.2% | IC50 (Butyrylcholinesterase): 23.8 µM | Activity [8]: 0.2 equiv | IC50 (Acetylcholinesterase [9]): 10.2 µM

O=C(Oc1ccc(-c2cc(=O)c3c(O)cc(OC(=O)N4CCOCC4)cc3o2)cc1)N1CCOCC1
inhibition [10]: 71.5% | IC50 (Butyrylcholinesterase): 18.6 µM | Activity [8]: 1.1 equiv | IC50 (Acetylcholinesterase [9]): 11.5 µM

CON(C)C(=O)Oc1ccc(-c2cc(=O)c3c(OC(=O)N(C)OC)cc(OC(=O)N(C)OC)cc3o2)cc1
IC50 (Cholinesterase [18]): 24.3 µM | IC50 (Acetylcholinesterase [19]): 12.7 µM | inhibition [10]: 36% | IC50 (Butyrylcholinesterase): 18.2 µM | Activity [8]: 0.2 equiv | IC50 (Acetylcholinesterase [9]): 6 µM

Reference: ChEMBL document CHEMBL4706484, “Apigenin-rivastigmine hybrids as multi-target-directed liagnds for the treatment of Alzheimer's disease” (Eur J Med Chem, 2020)
